Measured values as given in EP3508492A1, “TIACUMICIN DERIVATIVES AND THEIR USE AS ANTIBIOTICS” (priority 2018, dated 2019).
Converted amounts (≈) assume the structure as drawn. “And” between values parts separate entries of the source, which are not always exact repeats. Identical values can stand only once. Like-named read-outs stand apart in the source and are kept apart here.

Tests used:
[1] = test system: Mycobacterium tuberculosis H37Ra; experiment: MIC determination from adjusted liquid culture, serial dilution; assay type: cell-based; details: ATCC 25177 / H37Ra, strain ATCC25177, Middlebrook 7H9 + 10 % ADC, read after 3-14 days
Method: An M. tuberculosis H37Ra (ATCC25177) liquid culture (5 mL, Middlebrook 7H9 broth base + 10 % ADC supplement) was inoculated from original stock (-80°C). After two to five days of shaking at 37°C, an OD600 (optical density at λ = 600 nm) of approximately 1 was observed. […] Plates were covered with plastic foil and a lid. MIC values were determined by visual inspection or by plate reader at 600 nm after 3-14 days (pre-tempered at 37°C with plastic foil, lid removed). Table 1: The MIC values in Table 1 are given in µg/mL and in nmol/mL.

Staphylococcus aureus = experiment: MIC determination by broth dilution (CLSI); details: ATCC29213
Method: (§1) The strains of Bacillus subtilis and Staphylococcus aureus were grown overnight at 37 °C on MH II agar plates. (BD™ BBL™ Mueller Hinton II Agar, BD Diagnostics). MIC values were determined by broth dilution method according to the recommendations of the Clinical and Laboratory Standards Institute (CLSI; U.S.A.). The inoculum size was about 7.5 x 10^5 colony forming units/well. The compounds were diluted in H2O from 1.0 mg/mL stock solutions in methanol/H2O 1/1 in a 2-fold dilution series. The microtiter plates were incubated at 37 °C overnight.

Bacillus subtilis = experiment: MIC determination by broth dilution (CLSI); details: DSM3256
Method: as §1

[2] = Determination of aqueous solubility (UHPLC, caffeine internal standard); assay type: physicochemical; details: for weight-% of isomer (transacylated regioisomer): five hours at room temperature, equal absorption of both regioisomers assumed; for solubility at 5 h: thermodynamic from solid
Method: A standard stock solution of each analyte in MeOH at a concentration of 1.0 mg/mL was prepared. All analytes were completely soluble in MeOH. A standard stock solution of caffeine for use as internal standard (IS) in MeOH was prepared at a concentration of 1 mg/mL. These stock solutions were further diluted with MeOH to calibration standard samples at concentrations of 50, 100, 200, 300, 400, 500 µg/mL of analyte with each sample containing 50 µg/mL of caffeine as IS. These samples were analyzed by UHPLC [Kinetex® EVO C18; 1.7 µm; 100 Å, 50 mm x 2.1 mm; Phenomenex; solvent A: H2O + 0.1 % HCOOH, solvent B: MeCN + 0.1 % HCOOH; 0.4 mL/min; 1.0 µL injection volume, LC time program (min - % B): 0.50 min - 5 %, 3.50 min - 95 %, 3.55 min - 100 %; UV detection at λ = 270 nm]. The peak area of the analyte signal was divided by the peak area of the IS. This peak ratio was plotted against the analyte's concentration to obtain a linear equation.
For reproducibility reasons, water solubility of the fidaxomicin derivatives was quantified in a pH = 7 phosphate buffered aqueous solution (Acros, CAS 7558-79-4). A stock solution of caffeine in phosphate buffer at a concentration of 1.0 mg/mL was prepared and diluted to a concentration of 50 µg/mL. To 1.0 mL of this caffeine solution, the analyte was added as a solid until a saturated solution was obtained. This solution was stirred for five hours at room temperature. The mixture was filtered over a 0.22 µm syringe filter and the obtained solution was analyzed by UHPLC. The concentration was then calculated from the linear equation obtained from the calibration.
With most samples of fidaxomicin derivatives, two peaks for the analyte were detected, viz. one for the original substance and one for its regioisomer formed by transacylation of the isobutyric acid ester. In the following table, the total solubility of each analyte is given with the percentage of isomerization added in parentheses (weight-% of transacylated isomer), assuming that both regioisomers feature approximately the same absorption characteristics. Table 2: Aqueous solubility of fidaxomicin derivatives

[3] = pH = 7 phosphate buffered aqueous solution

## CCOC(=O)COc1c(Cl)c(O)c(C(=O)O[C@H]2[C@H](O)[C@H](OC)[C@H](OC/C3=C\C=C\C[C@H](O)/C(C)=C/[C@H](CC)[C@@H](O[C@@H]4OC(C)(C)[C@@H](OC(=O)C(C)C)[C@H](O)[C@@H]4O)/C(C)=C/C(C)=C/C[C@@H]([C@@H](C)O)OC3=O)O[C@@H]2C)c(CC)c1Cl [Compound 5a, Fidaxomicin Ethylacetate]
[1]
  MIC: 2 µg/mL to 8 µg/mL and 1.8 µM to 7 µM
Staphylococcus aureus
  MIC: 16 µg/mL and 14 µM
Bacillus subtilis
  MIC: 32 µg/mL and 28 µM

## CCOC(=O)COc1c(Cl)c(CC)c(C(=O)O[C@H]2[C@H](O)[C@H](OC)[C@H](OC/C3=C\C=C\C[C@H](O)/C(C)=C/[C@H](CC)[C@@H](O[C@@H]4OC(C)(C)[C@@H](OC(=O)C(C)C)[C@H](O)[C@@H]4O)/C(C)=C/C(C)=C/C[C@@H]([C@@H](C)O)OC3=O)O[C@@H]2C)c(OCC(=O)OCC)c1Cl [Compound 5b, Fidaxomicin Bis(ethylacetate)]
[1]
  MIC: 1 µg/mL to 4 µg/mL and 0.8 µM to 3.3 µM
Staphylococcus aureus
  MIC: 32 µg/mL to 64 µg/mL and 26 µM to 52 µM
Bacillus subtilis
  MIC: 8 µg/mL to 16 µg/mL and 6.5 µM to 13 µM

## C=CCOC(=O)N1CCN(C(=O)COc2c(Cl)c(O)c(C(=O)O[C@H]3[C@H](O)[C@H](OC)[C@H](OC/C4=C\C=C\C[C@H](O)/C(C)=C/[C@H](CC)[C@@H](O[C@@H]5OC(C)(C)[C@@H](OC(=O)C(C)C)[C@H](O)[C@@H]5O)/C(C)=C/C(C)=C/C[C@@H]([C@@H](C)O)OC4=O)O[C@@H]3C)c(CC)c2Cl)CC1 [Compound 7a, Fidaxomicin Piperazine with alloc Protecting Group]
Staphylococcus aureus
  MIC: 16 µg/mL to 32 µg/mL and 12.6 µM to 25.2 µM
Bacillus subtilis
  MIC: > 64 µg/mL and > 50.5 µM

## CCc1c(Cl)c(OCC(=O)N2CCC(O)CC2)c(Cl)c(O)c1C(=O)O[C@H]1[C@H](O)[C@H](OC)[C@H](OC/C2=C\C=C\C[C@H](O)/C(C)=C/[C@H](CC)[C@@H](O[C@@H]3OC(C)(C)[C@@H](OC(=O)C(C)C)[C@H](O)[C@@H]3O)/C(C)=C/C(C)=C/C[C@@H]([C@@H](C)O)OC2=O)O[C@@H]1C [Compound 10a]
[2]; [3]
  weight-% of isomer (transacylated regioisomer): 7 weight-%
[2]; phosphate buffer, aqueous buffer, pH = 7 phosphate buffered aqueous solution, stirred five hours at room temperature, 0.22 µm filter, read-out: Conc. (aqueous solubility, total of both regioisomers)
  solubility at 5 h: 180 µg/mL (≈ 150 µM)

## CCc1c(Cl)c(OCC(=O)N2CCN(c3cc4c(cc3F)c(=O)c(C(=O)O)cn4C3CC3)CC2)c(Cl)c(O)c1C(=O)O[C@H]1[C@H](O)[C@H](OC)[C@H](OC/C2=C\C=C\C[C@H](O)/C(C)=C/[C@H](CC)[C@@H](O[C@@H]3OC(C)(C)[C@@H](OC(=O)C(C)C)[C@H](O)[C@@H]3O)/C(C)=C/C(C)=C/C[C@@H]([C@@H](C)O)OC2=O)O[C@@H]1C [Compound 11a, Fidaxomicin-Ciprofloxacin Hybrid]
[1]
  MIC: 16 µg/mL to 64 µg/mL and 11.2 µM to 44.8 µM
Staphylococcus aureus
  MIC: > 64 µg/mL and > 44.8 µM

## CCc1c(Cl)c(O)c(Cl)c(O)c1C(=O)O[C@H]1[C@H](O)[C@H](OC)[C@H](OCC2=CC=CC[C@H](O)C(C)=C[C@H](CC)[C@@H](O[C@@H]3OC(C)(C)[C@@H](OC(=O)C(C)C)[C@H](O)[C@@H]3O)C(C)=CC(C)=CC[C@@H]([C@@H](C)O)OC2=O)O[C@@H]1C [Fidaxomicin, 3-(((6-Deoxy-4-O-(3,5-dichloro-2-ethyl-4,6-dihydroxybenzoyl)-2-O-methyl-β-D-mannopyranosyl)oxy)-methyl)-12(R)-[(6-deoxy-5-C-methyl-4-O-(2-methyl-1-oxopropyl)-β-D-lyxo-hexopyranosyl)oxy]-11(S)-ethyl-8(S)-hydroxy-18(S)-(1(R)-hydroxyethyl)-9,13,15-trimethyloxacyclooctadeca-3,5,9,13,15-pentaene-2-one, reference compound]
[1]
  MIC: 4 µg/mL and 3.8 µM
[2]; pH 7, aqueous buffer
  solubility at 5 h: 84 µg/mL (≈ 79.4 µM)
[2]; [3]
  weight-% of isomer (transacylated regioisomer): 9 weight-%
Staphylococcus aureus
  MIC: 8 µg/mL to 16 µg/mL and 7.6 µM to 15.1 µM
Bacillus subtilis
  MIC: 8 µg/mL to 16 µg/mL and 7.6 µM to 15.1 µM
